The numbers were not newly measured in US9302241B2, “Method of preparing lipid nanoparticles” (UNIVERSITE D'ANGERS, priority 2008, dated 2016), which cites them from elsewhere.

The conditions of this data set: concentration of Fondaparinux in its brand form Arixtra.

With Fondaparinux, the solubility in water entry is reported as “greater than 12.5 mg/ml”.
